According to patent US20250353891A1 (MEDIMMUNE LIMITED, priority 2022, published 2025):
Starred links: 1 amine or outer side, 2 acyl side, 3 side chain; linkers in the order of their positions; H or OH if unused. Non-standard residues stand in square brackets, D forms with d. Residues, ends and D or L forms follow the SMILES beside them. Groups on a side chain read outwards from the residue. *: point of attachment. Dip = N[C@H](C(=O)O)C(c1ccccc1)c1ccccc1; γGlu = O=C(O)[C@H](CCC(=O)[*:2])N[*:1]; Stearoyl = CCCCCCCCCCCCCCCCCC(=O)*; Palmitoyl = CCCCCCCCCCCCCCCC(=O)*; αMeF = C[C@](N)(Cc1ccccc1)C(=O)O; PEG4 = NCCOCCOCCOCCOCCC(=O)O; PEG2 = NCCOCCOCCC(=O)O; Aib = CC(C)(N)C(=O)O

Legend:
[1] = target: human glucagon receptor (hGCGR) (Homo sapiens, UniProt P47871); assay: cAMP production (HTRF) in CHO cells expressing hGCGR; format: cell-based; parameters: expressed in transfected cells; conditions: Table 6, peptides modified at position 17; cAMP in CHO hGCGR cells; geometric mean; read-out: hGluc-R EC50
human glucagon receptor (hGCGR), sequence (P47871 26-477): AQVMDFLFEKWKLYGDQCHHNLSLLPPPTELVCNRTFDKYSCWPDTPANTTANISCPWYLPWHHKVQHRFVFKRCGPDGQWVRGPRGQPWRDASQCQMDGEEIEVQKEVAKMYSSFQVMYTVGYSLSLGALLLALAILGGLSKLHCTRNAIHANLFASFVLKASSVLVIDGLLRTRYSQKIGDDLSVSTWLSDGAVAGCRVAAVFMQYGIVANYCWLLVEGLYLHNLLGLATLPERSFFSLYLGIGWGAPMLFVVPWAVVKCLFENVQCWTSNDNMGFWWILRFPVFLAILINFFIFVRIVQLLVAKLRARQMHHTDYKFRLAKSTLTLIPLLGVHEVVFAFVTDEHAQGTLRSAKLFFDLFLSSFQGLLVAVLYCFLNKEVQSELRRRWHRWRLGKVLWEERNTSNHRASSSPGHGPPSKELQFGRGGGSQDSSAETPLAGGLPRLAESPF
Method in brief: (§1)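 Cells were resuspended in assay buffer at batch-optimized density, typically 1×10^5 cells/mL for hGLP-1R and 2×10^5 cells/mL for hGCGR. After 30 min incubation at room temperature with compound, cAMP was measured by two-step HTRF. EC50 values came from 4-parameter logistic fits of % Delta F.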

[2] = target: human GLP-1 receptor (hGLP-1R) (Homo sapiens, UniProt P43220); assay: cAMP production (HTRF) in CHO cells expressing hGLP-1R; format: cell-based; parameters: expressed in transfected cells; conditions: for EC50: Table 6, peptides modified at position 17, cAMP in CHO hGLP-1R cells, geometric mean, read-out: hGLP-1R EC50; for % Relative Potency Ratio: Table 6, % GLP-1R activity relative to GLP-1 / % GlucR activity relative to glucagon
human GLP-1 receptor (hGLP-1R), sequence (P43220 24-463): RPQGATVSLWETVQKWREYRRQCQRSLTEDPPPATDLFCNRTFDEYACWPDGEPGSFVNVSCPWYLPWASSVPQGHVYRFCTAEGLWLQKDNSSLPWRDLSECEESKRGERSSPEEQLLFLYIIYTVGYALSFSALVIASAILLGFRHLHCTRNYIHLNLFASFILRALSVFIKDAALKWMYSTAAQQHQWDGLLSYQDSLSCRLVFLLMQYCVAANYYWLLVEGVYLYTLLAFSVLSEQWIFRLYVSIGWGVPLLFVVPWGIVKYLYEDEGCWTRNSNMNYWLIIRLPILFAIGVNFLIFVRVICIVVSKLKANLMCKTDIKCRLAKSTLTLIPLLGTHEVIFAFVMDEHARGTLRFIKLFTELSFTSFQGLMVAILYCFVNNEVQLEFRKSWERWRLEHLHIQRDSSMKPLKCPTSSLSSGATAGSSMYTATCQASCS
Method in brief: as §1

SMILES	EC50 [1]	EC50 [2]	% Relative Potency Ratio [2]
CCCCCCCCCCCCCCCC(=O)N[C@@H](CCC(=O)N[C@@H](CCC(=O)NCCOCCOCCC(=O)NCCOCCOCCC(=O)NCCCC[C@H](NC(=O)[C@H](CO)NC(=O)[C@H](CC(=O)O)NC(=O)[C@H](CC(C)C)NC(=O)[C@@H](NC(=O)[C@H](CCCCN)NC(=O)[C@H](CO)NC(=O)[C@@H](NC(=O)[C@H](CC(=O)O)NC(=O)[C@H](CO)NC(=O)[C@@H](NC(=O)[C@](C)(Cc1ccccc1)NC(=O)[C@H](CO)NC(=O)CNC(=O)[C@H](CCC(N)=O)NC(=O)[C@H](CO)NC(=O)[C@@H](N)Cc1c[nH]cn1)[C@@H](C)O)C(C)C)C(c1ccccc1)c1ccccc1)C(=O)N[C@@H](C)C(=O)N[C@@H](C)C(=O)N[C@@H](CCC(N)=O)C(=O)N[C@@H](CC(=O)O)C(=O)N[C@@](C)(Cc1ccccc1)C(=O)N[C@H](C(=O)N[C@@H](CCC(=O)O)C(=O)NC(C)(C)C(=O)N[C@H](C(=O)N[C@H](C(=O)N[C@@H](CC(N)=O)C(=O)N[C@H](C(N)=O)[C@@H](C)O)[C@@H](C)CC)[C@@H](C)CC)C(C)C)C(=O)O)C(=O)O [Peptide 64] (H-HSQGS[αMeF]TSDVSK[Dip]LDSK([PEG2-PEG2-γGlu-γGlu-Palmitoyl])AAQD[αMeF]VE[Aib]IINT-NH2; N-terminus assumed)	3.06 pM	2.57 pM	2.4
CCCCCCCCCCCCCCCCCC(=O)N[C@@H](CCC(=O)N[C@@H](CCC(=O)NCCOCCOCCC(=O)NCCOCCOCCC(=O)NCCCC[C@H](NC(=O)[C@H](CO)NC(=O)[C@H](CC(=O)O)NC(=O)[C@H](CC(C)C)NC(=O)[C@@H](NC(=O)[C@H](CCCCN)NC(=O)[C@H](CO)NC(=O)[C@@H](NC(=O)[C@H](CC(=O)O)NC(=O)[C@H](CO)NC(=O)[C@@H](NC(=O)[C@](C)(Cc1ccccc1)NC(=O)[C@H](CO)NC(=O)CNC(=O)[C@H](CCC(N)=O)NC(=O)C(C)(C)NC(=O)[C@@H](N)Cc1c[nH]cn1)[C@@H](C)O)C(C)C)C(c1ccccc1)c1ccccc1)C(=O)N[C@@H](C)C(=O)N[C@@H](C)C(=O)N[C@@H](CCC(N)=O)C(=O)N[C@@H](CC(=O)O)C(=O)N[C@@](C)(Cc1ccccc1)C(=O)N[C@H](C(=O)N[C@@H](CCC(N)=O)C(=O)NC(C)(C)C(=O)N[C@H](C(=O)N[C@@H](C)C(=O)N[C@@H](CC(N)=O)C(N)=O)[C@@H](C)CC)C(C)C)C(=O)O)C(=O)O [Peptide 66] (H-H[Aib]QGS[αMeF]TSDVSK[Dip]LDSK([PEG2-PEG2-γGlu-γGlu-Stearoyl])AAQD[αMeF]VQ[Aib]IAN-NH2; N-terminus assumed)	6.43 pM	1.52 pM	8.3
CCCCCCCCCCCCCCCC(=O)N[C@@H](CCC(=O)NCCOCCOCCC(=O)NCCOCCOCCC(=O)NCCCC[C@H](NC(=O)[C@H](CO)NC(=O)[C@H](CC(=O)O)NC(=O)[C@H](CC(C)C)NC(=O)[C@@H](NC(=O)[C@H](CCCCN)NC(=O)[C@H](CO)NC(=O)[C@@H](NC(=O)[C@H](CC(=O)O)NC(=O)[C@H](CO)NC(=O)[C@@H](NC(=O)[C@](C)(Cc1ccccc1)NC(=O)[C@H](CO)NC(=O)CNC(=O)[C@H](CCC(N)=O)NC(=O)C(C)(C)NC(=O)[C@@H](N)Cc1c[nH]cn1)[C@@H](C)O)C(C)C)C(c1ccccc1)c1ccccc1)C(=O)N[C@@H](C)C(=O)N[C@@H](C)C(=O)N[C@@H](CCC(N)=O)C(=O)N[C@@H](CC(=O)O)C(=O)N[C@@](C)(Cc1ccccc1)C(=O)N[C@H](C(=O)N[C@@H](CCC(N)=O)C(=O)NC(C)(C)C(=O)N[C@H](C(=O)N[C@@H](C)C(=O)N[C@@H](CC(N)=O)C(N)=O)[C@@H](C)CC)C(C)C)C(=O)O [Peptide 67] (H-H[Aib]QGS[αMeF]TSDVSK[Dip]LDSK([PEG2-PEG2-γGlu-Palmitoyl])AAQD[αMeF]VQ[Aib]IAN-NH2; N-terminus assumed)	9.49 pM	2.43 pM	7.7
CCCCCCCCCCCCCCCCCC(=O)N[C@@H](CCC(=O)N[C@@H](CCC(=O)NCCOCCOCCOCCOCCC(=O)NCCCC[C@H](NC(=O)[C@H](CO)NC(=O)[C@H](CC(=O)O)NC(=O)[C@H](CC(C)C)NC(=O)[C@](C)(Cc1ccccc1)NC(=O)[C@H](CCCCN)NC(=O)[C@H](CO)NC(=O)[C@@H](NC(=O)[C@H](CC(=O)O)NC(=O)[C@H](CO)NC(=O)[C@@H](NC(=O)[C@](C)(Cc1ccccc1)NC(=O)[C@H](CO)NC(=O)CNC(=O)[C@H](CCC(N)=O)NC(=O)C(C)(C)NC(=O)[C@@H](N)Cc1c[nH]cn1)[C@@H](C)O)C(C)C)C(=O)N[C@@H](CCCNC(=N)N)C(=O)N[C@@H](C)C(=O)N[C@@H](CCC(N)=O)C(=O)N[C@@H](CC(=O)O)C(=O)N[C@@](C)(Cc1ccccc1)C(=O)N[C@H](C(=O)N[C@@H](CCC(=O)O)C(=O)NC(C)(C)C(=O)N[C@@H](CC(C)C)C(=O)N[C@@H](CCC(=O)O)C(=O)N[C@@H](C)C(=O)NCC(=O)NCC(N)=O)C(C)C)C(=O)O)C(=O)O [Peptide 70] (H-H[Aib]QGS[αMeF]TSDVSK[αMeF]LDSK([PEG4-γGlu-γGlu-Stearoyl])RAQD[αMeF]VE[Aib]LEAGG-NH2)	30.9 pM	1.55 pM	39.4
CCCCCCCCCCCCCCCC(=O)N[C@@H](CCC(=O)N[C@@H](CCC(=O)NCCOCCOCCOCCOCCC(=O)NCCCC[C@H](NC(=O)[C@H](CO)NC(=O)[C@H](CC(=O)O)NC(=O)[C@H](CC(C)C)NC(=O)[C@](C)(Cc1ccccc1)NC(=O)[C@H](CCCCN)NC(=O)[C@H](CO)NC(=O)[C@@H](NC(=O)[C@H](CC(=O)O)NC(=O)[C@H](CO)NC(=O)[C@@H](NC(=O)[C@](C)(Cc1ccccc1)NC(=O)[C@H](CO)NC(=O)CNC(=O)[C@H](CCC(N)=O)NC(=O)C(C)(C)NC(=O)[C@@H](N)Cc1c[nH]cn1)[C@@H](C)O)C(C)C)C(=O)N[C@@H](C)C(=O)N[C@@H](C)C(=O)N[C@@H](CCC(N)=O)C(=O)N[C@@H](CC(=O)O)C(=O)N[C@@](C)(Cc1ccccc1)C(=O)N[C@H](C(=O)N[C@@H](CCC(=O)O)C(=O)NC(C)(C)C(=O)N[C@@H](CC(C)C)C(=O)N[C@@H](CCC(=O)O)C(=O)N[C@@H](C)C(=O)NCC(=O)NCC(N)=O)C(C)C)C(=O)O)C(=O)O [Peptide 72] (H-H[Aib]QGS[αMeF]TSDVSK[αMeF]LDSK([PEG4-γGlu-γGlu-Palmitoyl])AAQD[αMeF]VE[Aib]LEAGG-NH2)	73.7 pM	3.42 pM	42.6
CCCCCCCCCCCCCCCC(=O)N[C@@H](CCC(=O)N[C@@H](CCC(=O)NCCOCCOCCC(=O)NCCOCCOCCC(=O)NCCCC[C@H](NC(=O)[C@H](CO)NC(=O)[C@H](CC(=O)O)NC(=O)[C@H](CC(C)C)NC(=O)[C@](C)(Cc1ccccc1)NC(=O)[C@H](CCCCN)NC(=O)[C@H](CO)NC(=O)[C@@H](NC(=O)[C@H](CC(=O)O)NC(=O)[C@H](CO)NC(=O)[C@@H](NC(=O)[C@](C)(Cc1ccccc1)NC(=O)[C@H](CO)NC(=O)CNC(=O)[C@H](CCC(N)=O)NC(=O)C(C)(C)NC(=O)[C@@H](N)Cc1c[nH]cn1)[C@@H](C)O)C(C)C)C(=O)N[C@@H](C)C(=O)N[C@@H](C)C(=O)N[C@@H](CCC(N)=O)C(=O)N[C@@H](CC(=O)O)C(=O)N[C@H](C(=O)N[C@H](C(=O)N[C@@H](CCC(N)=O)C(=O)N[C@H](C(=O)N[C@H](C(=O)N[C@@H](C)C(=O)N[C@@H](CC(N)=O)C(N)=O)[C@@H](C)CC)[C@@H](C)CC)C(C)C)[C@@H](C)CC)C(=O)O)C(=O)O [Peptide 75] (H-H[Aib]QGS[αMeF]TSDVSK[αMeF]LDSK([PEG2-PEG2-γGlu-γGlu-Palmitoyl])AAQDIVQIIAN-NH2; N-terminus assumed)	2800 pM	18.9 pM	293.5
